Test results reported in patent US20230219951A1, “PYRIDINE-PYRIMIDINE DERIVATIVE, PREPARATION METHOD THEREFOR AND PHARMACEUTICAL USE THEREOF” (Jiangsu Hengrui Pharmaceuticals Co., Ltd., priority 2020, published 2023).

What was measured:
[1] = target: T1, interaction between the KRAS protein subtype G12V and the SOS1 protein (Homo sapiens, UniProt Q07889); assay: Inhibition of the interaction between KRAS G12V and SOS1 protein (AlphaLISA/AlphaScreen); type: binding; details: KRAS G12V + GST-TEV-SOS1(564-1049) + GDP
T1 construct: GST-TEV-SOS1(564-1049) (Viva Biotech, SOS1-191010); purchased SOS1: Viva Biotech; KRAS: Shanghai Panchao Biotechnology Co., Ltd. SOS1-191010
T1 sequence (Q07889 564-1049): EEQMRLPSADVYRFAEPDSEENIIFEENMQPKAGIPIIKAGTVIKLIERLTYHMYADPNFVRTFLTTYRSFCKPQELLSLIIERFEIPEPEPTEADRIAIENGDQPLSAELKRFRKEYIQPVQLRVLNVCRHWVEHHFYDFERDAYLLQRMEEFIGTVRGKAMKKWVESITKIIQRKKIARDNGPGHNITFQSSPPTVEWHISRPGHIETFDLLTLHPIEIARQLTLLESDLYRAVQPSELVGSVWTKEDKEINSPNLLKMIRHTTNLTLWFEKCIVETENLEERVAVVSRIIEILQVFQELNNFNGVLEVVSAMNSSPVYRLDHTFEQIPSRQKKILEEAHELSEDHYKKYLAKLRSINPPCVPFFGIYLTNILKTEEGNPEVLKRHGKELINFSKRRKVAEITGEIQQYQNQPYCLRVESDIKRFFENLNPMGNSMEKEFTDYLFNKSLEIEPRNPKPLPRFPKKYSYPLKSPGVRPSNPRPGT
Experimental: (§1) Test Example 1: Inhibitory Ability of Compounds of the Present Disclosure to the Interaction Between the KRAS Protein Subtype G12D or G12V and the SOS1 Protein. The inhibitory ability of the compounds of the present disclosure to the interaction between the KRAS protein subtype G12D or G12V and the SOS1 protein was determined by the following method. The experimental method was briefly described as follows:
(§2) 1. The experimental buffer was prepared prior to the start of the experiment: 1×PBS+0.1% BSA+0.05% tween 20.
(§3) 2. KRAS G12D and KRAS-G12V proteins were labeled with biotin using the biotin labeling kit.
(§4) 1. Firstly, the biotin-labeled KRAS G12D or KRAS G12V protein was mixed and incubated with the SOS1 protein and GDP for later use.
(§5) 2. AlphaLISA glutathione acceptor beads and AlphaScreen streptavidin donor beads were mixed at a ratio of 1:1 to make the concentration of 40 μg/mL for later use.
(§6) 3. The compound was formulated with the experimental buffer to obtain 10 concentration points by 5-fold gradient dilution from an initial concentration of 40 μM.
(§7) 4. In the 384-well microplate, 10 μL of a mixture of KRAS G12D or KRAS G12V protein and SOS1 and GDP and 5 μL of the diluted compound were added to each well and incubated at room temperature for 30 min away from the light.
(§8) 5. Then, 5 μL of a mixture of AlphaLISA glutathione acceptor beads and AlphaScreen streptavidin donor beads was added to each well and incubated at room temperature for 60 min away from the light.
(§9) 6. The fluorescence values were read on a multi-mode microplate reader.
(§10) 7. IC50 values of the compounds were calculated using Graphpad Prism.

[2] = target: T2, interaction between the KRAS protein subtype G12D and the SOS1 protein (Homo sapiens, UniProt Q07889); assay: Inhibition of the interaction between KRAS G12D and SOS1 protein (AlphaLISA/AlphaScreen); type: binding; details: KRAS G12D + GST-TEV-SOS1(564-1049) + GDP
T2 construct: GST-TEV-SOS1(564-1049) (Viva Biotech, SOS1-191010); purchased SOS1: Viva Biotech; KRAS: Shanghai Panchao Biotechnology Co., Ltd. SOS1-191010
T2 sequence (Q07889 564-1049): T1 sequence (Q07889 564-1049)
Experimental: as §1, §2, §3, §4, §5, §6, §7, §8, §9, §10

[3] = test system: ERK phosphorylation of H358 cells; assay: Inhibition of ERK phosphorylation of H358 cells (HTRF pERK/total ERK); type: cell-based; details: Homo sapiens, NCI-H358, 1 h incubation, pERK/total ERK ratio
Experimental: This experiment is intended to evaluate the inhibition effect of the compounds of the present disclosure on the KRAS target (containing the G12C mutation) according to IC50 by determining the inhibition effect of the compounds on ERK phosphorylation of the cells.
H358 cells (ATCC, CRL-5807) were cultured in RPMI1640 (Hyclone, SH30809.01) complete medium containing 10% fetal bovine serum. On the first day of the experiment, the H358 cells were seeded into a 96-well plate at a density of 25,000 cells/well with a complete medium to form 190 μL of cell suspension per well. The plate was incubated overnight in a cell incubator at 37° C. with 5% CO2. The next day, 10 μL of test compound diluted in a gradient prepared with the complete medium was added to each well. The final concentrations of the compound were 9 concentration points obtained by 5-fold gradient dilution from 10 μM. A blank control containing 0.1% DMSO was set. The plate was incubated in a cell incubator at 37° C. with 5% CO2 for 1 h. 1 h later, the 96-well cell culture plate was taken out, the medium was removed by pipetting, 200 μL PBS (Shanghai BasalMedia Technologies Co., Ltd., B320) was added to each well, and the cells were washed once. PBS was removed by pipetting, 50 μL of lysis buffer (Cisbio, 64KL1FDF) containing a blocking reagent (Cisbio, 64KB1AAC) was added to each well, and the plate was shaken on a shaker at room temperature for 40 min for lysis. After lysis, the lysate was pipetted and mixed well, 16 μL of lysate was transferred from each well to each of two HTRF 96-well assay plates (Cisbio, 66PL96100), and then 4 μL of premixed phospho-ERK1/2 antibody solution (Cisbio, 64AERPEG) or 4 μL of premixed total-ERK1/2 antibody solution (Cisbio, 64NRKPEG) was added to each of the two plates. The microplate was sealed with a sealing membrane, centrifuged for 1 min in a microplate centrifuge, and incubated overnight at room temperature away from the light. On the third day, the fluorescence values at an excitation wavelength of 337 nm and at emission wavelengths of 665 nm and 620 nm were read using a PHERAstar multi-mode microplate reader (BMG Labtech, S/N 471-0361).
IC50 values for inhibitory activity of the compounds were calculated using Graphpad Prism software based on compound concentrations and pERK/total ERK ratio.

[4] = test system: H358 cells; assay: Inhibition of proliferation of H358 cells (CellTiter-Glo 3D); type: cell-based; details: Homo sapiens, NCI-H358, low adsorption plate, 120 h
Experimental: This example is intended to evaluate the inhibition effect of the compounds of the present disclosure on the KRAS target (containing the G12C mutation) by testing the inhibition effect of the compounds of the present disclosure on the proliferation of H358 cells.
H358 cells (ATCC, CRL-5807) were cultured in a complete medium, namely RPMI1640 medium (Hyclone, SH30809.01) containing 10% fetal bovine serum (Corning, 35-076-CV). On the first day of the experiment, the H358 cells were seeded into a 96-well low adsorption plate (Coming, CLS7007-24EA) at a density of 1500 cells/well with a complete medium to form 90 μL of cell suspension per well. The plate was centrifuged at 2000 rpm for 5 min at room temperature and then incubated overnight in a cell incubator at 37° C. with 5% CO2. The next day, 10 μL of test compound diluted in a gradient prepared with the complete medium was added to each well. The final concentrations of the compound were 9 concentration points obtained by 5-fold gradient dilution from 10 μM. A blank control containing 0.1% DMSO was set. The plate was incubated in a cell incubator at 37° C. with 5% CO2 for 120 h. On the seventh day, the 96-well cell culture plate was taken out and 50 μL of CellTiter-Glo® 3D reagent (Promega, G9682) was added into each well. The plate was shaken at room temperature for 25 min, pipetted and mixed well, from which 50 μL of the mixture was transferred into a white impermeable 96-well plate (PE, 6005290). The luminescence signal values were read using a multi-mode microplate reader (PerkinElmer, VICTOR 3).
IC50 values for the inhibitory activity of the compounds were calculated using Graphpad Prism software.

| IC50 [1] [nM] | IC50 [2] [nM] | IC50 [4] [nM] | Structure (SMILES) | IC50 [3] [nM] |
| --- | --- | --- | --- | --- |
| 35 | 31 | 120 | Cc1nc(N[C@H](C)c2cccc3c2OCC3(F)F)c2cc([C@]3(O)CC[C@@H](O)CC3)c(=O)[nH]c2n1 (racemic) [Example 25-p1, rac-4-(((R)-1-(3,3-difluoro-2,3-dihydrobenzofuran-7-yl)ethyl)amino)-6-((1s,4S)-1,4-dihydroxycyclohexyl)-2-methylpyrido[2,3-d]pyrimidin-7(8H)-one] | 101 |
| 133 | 49 |  | CC(=O)N1CC[C@H](Oc2cc3c(N[C@H](C)c4cccc(C(F)F)c4F)nc(C)nc3[nH]c2=O)C1 [Example 24, 6-(((S)-1-acetylpyrrolidin-3-yl)oxy)-4-(((R)-1-(3-(difluoromethyl)-2-fluorophenyl)ethyl)amino)-2-methylpyrido[2,3-d]pyrimidin-7(8H)-one] |  |
| 79 | 21.5 | 137 | Cc1nc(N[C@H](C)c2cccc(C(F)F)c2F)c2cc(C3=CCC(C(=O)N(C)C)CC3)c(=O)[nH]c2n1 (stereo partly drawn) [Example 13, 4-(4-(((R)-1-(3-(difluoromethyl)-2-fluorophenyl)ethyl)amino)-2-methyl-7-oxo-7,8-dihydropyrido[2,3-d]pyrimidin-6-yl)-N,N-dimethylcyclohex-3-ene-1-carboxamide] |  |
| 80 | 34 |  | Cc1nc(N[C@H](C)c2cccc(C(F)F)c2F)c2cc(O[C@H]3CCOC3)c(=O)[nH]c2n1 [Example 10, 4-(((R)-1-(3-(difluoromethyl)-2-fluorophenyl)ethyl)amino)-2-methyl-6-(((S)-tetrahydrofuran-3-yl)oxy)pyrido[2,3-d]pyrimidin-7(8H)-one] |  |
| 41 | 8 | 106 | Cc1nc(N[C@H](C)c2cccc(C(F)(F)CO)c2F)c2cc(OC3CCOC3)c(=O)[nH]c2n1 (stereo partly drawn) [Example 9, 4-(((R)-1-(3-(1,1-difluoro-2-hydroxyethyl)-2-fluorophenyl)ethyl)amino)-2-methyl-6-(((R)-tetrahydrofuran-3-yl)oxy)pyrido[2,3-d]pyrimidin-7(8B)-one] |  |
| 65 | 44 | 346 | CC(=O)N1CC(Oc2cc3c(N[C@H](C)c4cccc(C(F)F)c4F)nc(C)nc3[nH]c2=O)C1 (racemic) [Example 26, rac-(R)-6-((1-acetylazetidin-3-yl)oxy)-4-((1-(3-(difluoromethyl)-2-fluorophenyl)ethyl)amino)-2-methylpyrido[2,3-d]pyrimidin-7(8H)-one] |  |
| 89 | 10 |  | Cc1nc(N[C@H](C)c2cccc(C(F)F)c2F)c2cc(OC3CCS(=O)(=O)CC3)c(=O)[nH]c2n1 [Example 23, (R)-4-((1-(3-(difluoromethyl)-2-fluorophenyl)ethyl)amino)-6-((1,1-dioxidotetrahydro-2H-thiopyran-4-yl)oxy)-2-methylpyrido[2,3-d]pyrimidin-7(8H)-one] |  |
| 56 | 30 | 345 | Cc1nc(N[C@H](C)c2cccc(C(F)F)c2F)c2cc(C3CCOCC3)c(=O)[nH]c2n1 [Example 6, (R)-4-((1-(3-(difluoromethyl)-2-fluorophenyl)ethyl)amino)-2-methyl-6-(tetrahydro-2H-pyran-4-yl)pyrido[2,3-d]pyrimidin-7(8H)-one] |  |
| 79 | 42 | 461 | Cc1nc(N[C@H](C)c2cccc(C(F)F)c2F)c2cc(C3=CCOCC3)c(=O)[nH]c2n1 [Example 5, (R)-4-((1-(3-(difluoromethyl)-2-fluorophenyl)ethyl)amino)-6-(3,6-dihydro-2H-pyran-4-yl)-2-methylpyrido[2,3-d]pyrimidin-7(8H)-one] |  |
|  |  |  | Cc1nc(N[C@H](C)c2cc(N)cc(C(F)(F)F)c2)c2cc(C3=CCOCC3)c(=O)[nH]c2n1 [Example 3, (R)-4-((1-(3-amino-5-(trifluoromethyl)phenyl)ethyl)amino)-6-(3,6-dihydro-2H-pyran-4-yl)-2-methylpyrido[2,3-d]pyrimidin-7(8H)-one] | 55 |
| 101 | 91 | 545 | CNC(=O)C1CCC(O)(c2cc3c(N[C@H](C)c4cccc(C(F)F)c4F)nc(C)nc3[nH]c2=O)CC1 (stereo partly drawn) [Example 29, (R)-4-(4-((1-(3-(difluoromethyl)-2-fluorophenyl)ethyl)amino)-2-methyl-7-oxo-7,8-dihydropyrido[2,3-d]pyrimidin-6-yl)-4-hydroxy-N-methylcyclohexane-1-carboxamide] |  |
| 154 | 47 |  | Cc1nc(N[C@H](C)c2cccc(C(F)F)c2F)c2cc(C3(O)CCOCC3)c(=O)[nH]c2n1 [Example 19, (R)-4-((1-(3-(difluoromethyl)-2-fluorophenyl)ethyl)amino)-6-(4-hydroxytetrahydro-2H-pyran-4-yl)-2-methylpyrido[2,3-d]pyrimidin-7(8H)-one] |  |

| Structure (SMILES) | IC50 [1] [nM] | IC50 [2] [nM] | IC50 [4] [nM] | IC50 [3] [nM] |
| --- | --- | --- | --- | --- |
| Cc1nc(N[C@H](C)c2cccc(C(F)F)c2F)c2cc(C3(O)CCN(C(=O)CF)CC3)c(=O)[nH]c2n1 (racemic) [Example 22, rac-(R)-4-((1-(3-(difluoromethyl)-2-fluorophenyl)ethyl)amino)-6-(1-(2-fluoroacetyl)-4-hydroxypiperidin-4-yl)-2-methylpyrido[2,3-d]pyrimidin-7(8H)-one] | 27 | 14 |  |  |
